# Source: patent publication US5597822A, “Pharmaceutical compositions for the prevention and/or treatment a gastrointestinal diseases” (Egis Pharmaceutical, priority 1993, dated 1997)
# Read-outs that look alike come from different tables or passages of the source.
# Tests used:
# [1] = system: gastric erosions induced by ethanol containing hydrochloric acid; assay: Test with ethanol containing hydrochloric acid (gastric erosions); assay type: in vivo, rat; conditions: for Inhibition of the erosion index, relative activity: ED50 of cetraxate divided by ED50 of compound tested; for ED50: po, rat, p.o., HCl/absolute ethanol 1 to 50; for Inhibition of the erosion frequency, relative activity: related to cetraxate
# Experimental: (§1) Rats of both sexes weighing 200 to 250 g, each previously starved for 24 hours, were used in this experiment. The lesions of gastric mucosa were induced by the oral administration of absolute ethanol in a dose of 1 ml/animal. After one hour following the administration, the animals were killed by an overdose of ether, the stomach was excised and the alterations of gastric mucosa were examined. The lengths of the erosions were measured and summarized (expressed in mm) for each stomach to obtain the erosion index by calculating the average value of the group. The inhibition was calculated in percentage by comparing the value of the group treated with ethanol to that of the control group treated only with the vehicle. Various doses of the compounds to be tested were administered, perorally, in a volume of 5 ml/kg using a pretreatment time of 60 minutes. Eight rats were used for each dose. /A. Robert, Gastroenterology 77, 761-767 (1979)/.
# The principle of the method consists in that, simultaneously with the administration of absolute ethanol, hydrochloric acid is introduced to the stomach. Thus, the influence on systemic gastric acid inhibition action can be eliminated by the presence of the exogenous acid.
# The reagent used in this test was a mixture of concentrated aqueous hydrochloric acid and absolute ethanol in a mass ratio of 1 to 50 in accordance with the dilution ratio used by Yamazaki et al., see Japan J. Pharmacol., 55, 415-424 (1991). Otherwise, the experiment was performed as described under test 2.1., however, in addition to the erosion index calculated from the lengths of the erosions in mm, the ratio of occurence of animals showing at least one gastric erosion within a test group, i.e. the erosion frequency, was also evaluated.
# [2] = system: gastric mucosa lesions induced by absolute ethanol; assay: Gastroprotective activity, test with absolute ethanol (gastric mucosa erosions); assay type: in vivo, rat; conditions: for Relative activity related to the inhibition of the free acid: ED50 of gastric acid inhibition (Shay) related to ED50 of inhibition of gastric erosion; for ED50: po; for gastroprotective activity (in words): test with absolute ethanol
# Experimental: as §1
# ^x Relative activity = ED50 value of the gastric acid inhibition
# related to the ED50 value of the inhibition of the gastric erosion.
# Helicobacter pylori = assay: Antibacterial effect on Helicobacter pylori (MIC, blood agar); assay type: cell-based; conditions: Helicobacter pylori, 72 h
# Experimental: Helicobacter pylori strains used in these experiments were obtained from the biopsial samples of the stomachs of patients suffering from ulcerative diseases of the gastrointestinal system. From the pure culture of isolates a thick suspension was prepared with cysteine-inositol solution suitable for lyophilisation, and the suspension obtained was maintained in cold-resistant plastic ampoules in a deep-freezing chamber at a temperature of about -196 ° C. For the determination of the inhibitory effect of the compounds tested on Helicobacter pylori, blood agar containing 10 mg/liter of vancomycin and 25 mg/liter of amphotericin B was used /C. A. M. McNulty and I. C. Dent: Susceptibility of clinical isolates of Campylobacter pylori to twenty one antimicrobial agents. Book of Abstracts, 4th European Congress of Clinical Microbiology, Nice (1989)/.
# The plates containing the strains were cultivated at 37° C. for 72 hours under a gaseous atmosphere containing 10 per cent of carbon dioxide and 5 per cent of oxygen /D. M. Jones et al., J. Clin. Pathol., 37, 1002 (1984)/.
# The culture media were inoculated by diluting the broth culture of the strains grown overnight or with a suspension prepared from a culture obtained on a solid medium. About 10^5 of germs were applied to the surface of each plate.
# A series of dilution were prepared from the compound to be-tested. The MIC (minimal inhibiting concentration) value of the compounds tested was considered to be the lowest concentration inhibiting the growth of the test organism completely.
# in vivo = conditions: mouse, po, NMRI mice, 7 days, "higher than" = highest dose administered without any death
# Experimental: The acute toxicity was determined on NMRI strain mice of both sexes weighing 20 to 25 g each by using 6 animals for each dose. The compounds to be tested were administered perorally in a volume of 20 ml/kg, the highest dose applied was 1000 mg/kg. After the administration the animals were kept under usual laboratory conditions for 7 days.
# The data given as "higher than" a certain value mean the highest dose administered without noting any death of animals.
# [3] = erosion frequency, read-out: Inhibition of the erosion frequency, ED50 p.o.
# [4] = erosion index, read-out: Inhibition of the erosion index, ED50 p.o.
# [5] = rat, 60 min pretreatment, absolute ethanol 1 ml/animal, erosion index
compound,measurement,setting,value
"COc1ccccc1/C=C1\CCCC\C1=N/OCC(O)CN1CCN(c2ccccc2OC)CC1 (racemic) [Compound H, (R,S)-2-(E)-(2-methoxyphenylmethylene)-1-(E)-{3-[4-(2-methoxyphenyl)-1-piperazinyl]-2-hydroxypropoxyimino}cyclohexane]","Inhibition of the erosion index, relative activity",[1]; erosion index,0.4-0.7
same,ED50,[1]; [3],> 60 mg/kg
same,ED50,[1]; [4],30 to 60 mg/kg
same,"Inhibition of the erosion frequency, relative activity",[1]; erosion frequency,< 3
same,Relative activity related to the inhibition of the free acid,[2],higher than 20.0
same,ED50,[2]; [5],9.5 mg/kg
"CC(C)N(CC(O)CO/N=C1\CCCC\C1=C/c1ccc(Cl)cc1)C(C)C (racemic) [Compound J, (R,S)-2-(E)-(4-chlorophenylmethylene)-1-(E)-[(3-diisopropylamino-2-hydroxypropoxy)imino]cyclohexane]","Inhibition of the erosion index, relative activity",[1]; erosion index,3.7
same,ED50,[1]; [3],19.1 mg/kg
same,ED50,[1]; [4],5.9 mg/kg
same,"Inhibition of the erosion frequency, relative activity",[1]; erosion frequency,9.9
same,Relative activity related to the inhibition of the free acid,[2],about 25.0
same,ED50,[2]; [5],7 mg/kg
"CN(C)CC(O)CO/N=C1\CCCC\C1=C/c1ccc(Cl)cc1 (racemic) [Compound G, (R,S)-2-(E)-(4-chlorophenylmethylene)-1-(E)-[(3-dimethylamino-2-hydroxypropoxy)imino]cyclohexane]",ED50,[1]; [4],15.8 mg/kg
same,"Inhibition of the erosion frequency, relative activity",[1]; erosion frequency,3-6
same,Relative activity related to the inhibition of the free acid,[2],60-125
same,MIC,Helicobacter pylori; strain 867/90,31.2 µg/mL
same,MIC,Helicobacter pylori; strain 1596,125 µg/mL
same,MIC,Helicobacter pylori; strain 3842,62.5 µg/mL
same,MIC,Helicobacter pylori; strain 6656,31.2 µg/mL
same,MIC,Helicobacter pylori; strain 6709,125 µg/mL
"OC(CNC1CCCCC1)CO/N=C1\CCCC\C1=C/c1ccc(Cl)cc1 (racemic) [Compound E, (R,S)-2-(E)-(4-chlorophenylmethylene)-1-(E)-[(3-cyclohexylamino-2-hydroxypropoxy)imino]cyclohexane]",ED50,[1]; [4],10.3 mg/kg
same,"Inhibition of the erosion frequency, relative activity",[1]; erosion frequency,3-6
same,LD50 at 168 h,in vivo,> 1000 mg/kg
"CCCCCCNCC(O)CO/N=C1\CCCC\C1=C/c1ccc(Cl)cc1 (racemic) [Compound F, (R,S)-2-(E)-(4-chlorophenylmethylene)-1-(E)-[(3-hexylamino-2-hydroxypropoxy)imino]-cyclohexane]",ED50,[1]; [4],7.2 mg/kg
same,LD50 at 168 h,in vivo,> 1000 mg/kg
"CCCN(CCC)CC(O)CO/N=C1\CCCC\C1=C/c1ccc(Cl)c(Cl)c1 (racemic) [Compound B, (R,S)-2-(E)-(3,4-dichlorophenylmethylene)-1-(E)-[(3-dipropylamino-2-hydroxypropoxy)imino]cyclohexane]","Inhibition of the erosion index, relative activity",[1]; erosion index,1.7
same,ED50,[1]; [3],20.1 mg/kg
same,ED50,[1]; [4],12.7 mg/kg
same,"Inhibition of the erosion frequency, relative activity",[1]; erosion frequency,6.4
same,LD50 at 168 h,in vivo,> 1000 mg/kg
same,Relative activity related to the inhibition of the free acid,[2],12.5
same,ED50,[2]; [5],12.6 mg/kg
"COc1ccc2nc([S+]([O-])Cc3ncc(C)c(OC)c3C)[nH]c2c1 (centres unmarked) [omeprazole, 5-methoxy-2-[[(4-methoxy-3,5-dimethyl-2-pyridyl)methyl]sulfinyl]benzimidazole, reference compound]",LD50 at 168 h,in vivo,> 4000 mg/kg
same,gastroprotective activity (in words),[2],low gastroprotective action in a rather high dose
"beta-D-fructofuranosyl alpha-D-glucopyranoside hydrogen sulfate basic aluminium salt [sucralfate, reference compound]","Gastroprotective activity: test with absolute ethanol, ED50 p.o.","[2]; rat, p.o., 60 min pretreatment, absolute ethanol 1 ml/animal, erosion index",69.0 mg/kg
same,gastroprotective activity (in words),[2],nearly identical activity
"CNC(=NC#N)NCCSCc1nc[nH]c1C [cimetidine, 2-cyano-1-methyl-3-[2-[[(5-methyl-4-imidazolyl)-methyl]thio]ethyl]guanidine, reference compound]",gastroprotective activity (in words),[2],low gastroprotective action in a rather high dose
"CCCCNCC(O)CO/N=C1\CCCC\C1=C/c1ccc(Cl)c(Cl)c1 (racemic) [Compound A, (R,S)-2-(E)-(3,4-dichlorophenylmethylene)-1-(E)-[(3-butylamino-2-hydroxypropoxy)imino]cyclohexane]","Inhibition of the erosion index, relative activity",[1]; erosion index,3.1
same,ED50,[1]; [3],18.8 mg/kg
same,ED50,[1]; [4],7.1 mg/kg
same,"Inhibition of the erosion frequency, relative activity",[1]; erosion frequency,10.1
same,LD50 at 168 h,in vivo,> 1000 mg/kg
same,Relative activity related to the inhibition of the free acid,[2],60.5
same,ED50,[2]; [5],2 mg/kg
"CCCCNCC(O)CO/N=C1\CCCC\C1=C/c1ccc(Cl)cc1 (racemic) [Compound L, (R,S)-2-(E)-(4-chlorophenylmethylene)-1-(E)-[(3-butylamino-2-hydroxypropoxy)imino]cyclohexane]","Inhibition of the erosion index, relative activity",[1]; erosion index,2.2
same,ED50,[1]; [3],30 to 60 mg/kg
same,ED50,[1]; [4],9.8 mg/kg
same,"Inhibition of the erosion frequency, relative activity",[1]; erosion frequency,3-6
same,LD50 at 168 h,in vivo,1300 mg/kg
same,Relative activity related to the inhibition of the free acid,[2],18.3
same,ED50,[2]; [5],7.6 mg/kg
"CCCCCCNCC(O)CO/N=C1\CCCC\C1=C/c1ccccc1 (racemic) [Compound C, (R,S)-2-(E)-(phenylmethylene)-1-(E)-[(3-hexylamino-2-hydroxypropoxy)imino]cyclohexane]",ED50,[1]; [4],11.5 mg/kg
same,LD50 at 168 h,in vivo,> 1000 mg/kg
same,MIC,Helicobacter pylori; strain 867/90,3.9 µg/mL
same,MIC,Helicobacter pylori; strain 1596,7.8 µg/mL
same,MIC,Helicobacter pylori; strain 3842,3.9 µg/mL
same,MIC,Helicobacter pylori; strain 6656,3.9 µg/mL
same,MIC,Helicobacter pylori; strain 6709,3.9 µg/mL
"C=CCNCC(O)CO/N=C1\CCCC\C1=C/c1ccc(Cl)cc1 (racemic) [Compound I, (R,S)-2-(E)-(4-chlorophenylmethylene)-1-(E)-[(3-propenylamino-2-hydroxypropoxy)imino]cyclohexane]","Inhibition of the erosion index, relative activity",[1]; erosion index,2.6
same,ED50,[1]; [3],39.2 mg/kg
same,ED50,[1]; [4],8.6 mg/kg
same,"Inhibition of the erosion frequency, relative activity",[1]; erosion frequency,4.8
same,Relative activity related to the inhibition of the free acid,[2],higher than 10.0
same,ED50,[2]; [5],8.4 mg/kg
CC(C)NCC(O)CO/N=C1\CCCC\C1=C/c1ccc(Br)cc1 (racemic) [Compound K],"Inhibition of the erosion index, relative activity",[1]; erosion index,1.9
same,ED50,[1]; [3],15 to 30 mg/kg
same,ED50,[1]; [4],11.4 mg/kg
same,"Inhibition of the erosion frequency, relative activity",[1]; erosion frequency,6-12
same,Relative activity related to the inhibition of the free acid,[2],about 17.9
same,ED50,[2]; [5],6.7 mg/kg
"CN(C)CCCNCC(O)CO/N=C1\CCCC\C1=C/c1ccccc1 (racemic) [Compound M, (R,S)-2-(E)-(phenylmethylene)-1-(E)-{[3-(3-dimethylamino-1-propylamino)-2-hydroxypropoxy]imino}cyclohexane]","Inhibition of the erosion index, relative activity",[1]; erosion index,1.3
same,ED50,[1]; [3],30 to 60 mg/kg
same,ED50,[1]; [4],17.5 mg/kg
same,"Inhibition of the erosion frequency, relative activity",[1]; erosion frequency,3-6
same,Relative activity related to the inhibition of the free acid,[2],about 6.7
same,ED50,[2]; [5],29.9 mg/kg
"CN(CC(O)CO/N=C1\CCCC\C1=C/c1ccc(Cl)cc1)C1CCCCC1 (racemic) [Compound D, (R,S)-2-(E)-(4-chlorophenylmethylene)-1-(E)-[3'-(N-methyl-N-cyclohexylamino)-2'-hydroxypropoxyimino]cyclohexane]","Inhibition of the erosion index, relative activity",[1]; erosion index,4.2
same,ED50,[1]; [3],8.3 mg/kg
same,ED50,[1]; [4],5.2 mg/kg
same,"Inhibition of the erosion frequency, relative activity",[1]; erosion frequency,22.8
same,LD50 at 168 h,in vivo,> 1000 mg/kg
same,Relative activity related to the inhibition of the free acid,[2],32.3
same,ED50,[2]; [5],2.6 mg/kg
same,MIC,Helicobacter pylori; strain 867/90,15.6 µg/mL
same,MIC,Helicobacter pylori; strain 1596,15.6 µg/mL
same,MIC,Helicobacter pylori; strain 3842,15.6 µg/mL
same,MIC,Helicobacter pylori; strain 6656,15.6 µg/mL
same,MIC,Helicobacter pylori; strain 6709,15.6 µg/mL
"CN1CCN(CC(=O)N2c3ccccc3C(=O)Nc3cccnc32)CC1 [pirenzepine, reference compound]",gastroprotective activity (in words),[2],low gastroprotective action in a rather high dose
